Legend:
CYP2D6 = target: T1, CYP2D6 (Homo sapiens, UniProt P10635); assay: CYP inhibition assay in human liver microsome; type: in vitro ADME; conditions: human liver microsomes, probe dextromethorphan, 10µM test compound, dextromethorphan substrate, <0: not or weak inhibitor, read-out: CYP 2D6 inhibition %@10µM
T1 construct: tissue BD-Gentest 452117; host or cells: human liver microsomes
Outline: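 HLM mixed with CYP2D6 substrate, preincubated 10 min at 37 °C, started with NADPH regenerating system and run 10 min at 37 °C before acetonitrile quench. Metabolite measured by RapidFire MS/MS against D3-dextrorphan internal standard. % inhibition scaled between DMSO and concentrated-inhibitor controls.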

hERG channel = target: T2, hERG channel (Homo sapiens, UniProt Q12809); assay: hERG channel inhibition assay (patch-clamp, CHO hERG cells); type: cell-based; conditions: for IC50 / IC20: CHO hERG cells, whole-cell patch-clamp; for IC20: human, CHO cells stably expressing hERG; for hERG IC20 / TLR7 IC50 / hERG IC20 / TLR9 IC50 / hERG IC20 / TLR8 IC50: safety ratio; for hERG IC20 / TLR7 IC50: TLR7 IC50 of ER compounds from Table 1; for hERG IC20 / TLR9 IC50: TLR9 IC50 of ER compounds from Table 1
T2 construct: expressed in transfected cells; host or cells: CHO (Chinese hamster ovary)
Outline: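 Whole-cell voltage-clamp on CHO cells stably expressing human hERG, IKhERG evoked at 0.1 Hz. Compound applied at rising concentrations, each held 3-10 min to steady state; current amplitude and kinetics expressed against control taken as 100%.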

hTLR9 = target: T3, hTLR9 (Homo sapiens, UniProt Q9NR96); parameters: host or cells: HEK; conditions: data disclosed in US20150105370; read-out: HEK/hTLR9 IC50; cited from earlier work
T3 sequence (Q9NR96 26-1032): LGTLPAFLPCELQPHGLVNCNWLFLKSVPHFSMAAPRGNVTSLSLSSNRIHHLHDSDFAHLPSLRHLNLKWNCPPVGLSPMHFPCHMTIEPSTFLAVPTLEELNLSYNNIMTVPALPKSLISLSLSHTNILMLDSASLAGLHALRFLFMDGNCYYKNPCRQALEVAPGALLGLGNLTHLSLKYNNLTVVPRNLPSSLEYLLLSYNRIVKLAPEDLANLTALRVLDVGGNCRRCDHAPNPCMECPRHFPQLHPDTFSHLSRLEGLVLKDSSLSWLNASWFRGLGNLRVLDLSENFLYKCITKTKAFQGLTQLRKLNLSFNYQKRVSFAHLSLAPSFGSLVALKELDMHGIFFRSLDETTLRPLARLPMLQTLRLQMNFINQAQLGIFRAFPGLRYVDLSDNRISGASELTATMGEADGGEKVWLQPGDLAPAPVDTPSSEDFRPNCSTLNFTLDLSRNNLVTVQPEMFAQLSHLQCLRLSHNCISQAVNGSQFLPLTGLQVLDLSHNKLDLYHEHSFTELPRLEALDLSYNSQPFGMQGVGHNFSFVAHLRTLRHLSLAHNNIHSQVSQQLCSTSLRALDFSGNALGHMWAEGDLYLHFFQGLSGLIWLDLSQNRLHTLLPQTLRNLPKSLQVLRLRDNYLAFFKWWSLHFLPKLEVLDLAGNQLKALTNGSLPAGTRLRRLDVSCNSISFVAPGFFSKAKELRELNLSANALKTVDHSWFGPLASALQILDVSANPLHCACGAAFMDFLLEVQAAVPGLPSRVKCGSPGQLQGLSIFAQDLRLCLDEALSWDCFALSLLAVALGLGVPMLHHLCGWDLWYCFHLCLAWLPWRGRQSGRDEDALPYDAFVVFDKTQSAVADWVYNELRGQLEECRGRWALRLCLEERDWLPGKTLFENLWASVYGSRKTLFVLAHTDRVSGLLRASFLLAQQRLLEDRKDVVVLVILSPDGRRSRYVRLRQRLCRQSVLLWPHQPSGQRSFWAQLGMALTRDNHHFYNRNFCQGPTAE

T2 sequence (Q12809 whole entry): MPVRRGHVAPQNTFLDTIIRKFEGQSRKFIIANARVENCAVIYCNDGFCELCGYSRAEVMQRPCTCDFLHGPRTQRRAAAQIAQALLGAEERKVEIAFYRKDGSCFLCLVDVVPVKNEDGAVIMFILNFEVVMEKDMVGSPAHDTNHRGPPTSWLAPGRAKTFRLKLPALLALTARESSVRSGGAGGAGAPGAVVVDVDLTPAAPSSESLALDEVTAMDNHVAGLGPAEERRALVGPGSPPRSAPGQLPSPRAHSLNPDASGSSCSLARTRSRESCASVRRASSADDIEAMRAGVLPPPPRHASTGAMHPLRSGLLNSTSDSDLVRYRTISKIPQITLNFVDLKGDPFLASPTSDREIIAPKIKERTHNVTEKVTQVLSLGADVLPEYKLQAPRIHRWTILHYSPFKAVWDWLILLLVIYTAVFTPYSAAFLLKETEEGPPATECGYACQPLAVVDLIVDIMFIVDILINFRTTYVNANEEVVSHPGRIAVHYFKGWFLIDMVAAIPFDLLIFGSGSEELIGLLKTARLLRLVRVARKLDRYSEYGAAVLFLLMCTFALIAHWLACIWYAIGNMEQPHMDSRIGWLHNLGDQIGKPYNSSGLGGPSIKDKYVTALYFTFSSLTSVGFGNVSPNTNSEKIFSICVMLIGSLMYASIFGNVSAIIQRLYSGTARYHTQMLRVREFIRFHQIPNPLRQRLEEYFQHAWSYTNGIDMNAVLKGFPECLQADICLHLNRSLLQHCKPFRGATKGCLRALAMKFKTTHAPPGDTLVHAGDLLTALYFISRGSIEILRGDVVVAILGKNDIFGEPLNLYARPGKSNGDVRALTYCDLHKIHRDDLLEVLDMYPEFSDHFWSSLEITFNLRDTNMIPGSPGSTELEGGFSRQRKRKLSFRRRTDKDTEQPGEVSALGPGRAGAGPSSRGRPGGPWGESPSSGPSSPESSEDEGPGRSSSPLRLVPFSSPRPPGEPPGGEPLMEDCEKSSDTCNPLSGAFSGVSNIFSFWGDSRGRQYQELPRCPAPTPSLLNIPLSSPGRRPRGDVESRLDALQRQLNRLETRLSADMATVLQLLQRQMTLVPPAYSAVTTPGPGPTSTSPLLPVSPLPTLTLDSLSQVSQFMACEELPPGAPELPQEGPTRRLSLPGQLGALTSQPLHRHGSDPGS
T1 sequence (P10635 whole entry): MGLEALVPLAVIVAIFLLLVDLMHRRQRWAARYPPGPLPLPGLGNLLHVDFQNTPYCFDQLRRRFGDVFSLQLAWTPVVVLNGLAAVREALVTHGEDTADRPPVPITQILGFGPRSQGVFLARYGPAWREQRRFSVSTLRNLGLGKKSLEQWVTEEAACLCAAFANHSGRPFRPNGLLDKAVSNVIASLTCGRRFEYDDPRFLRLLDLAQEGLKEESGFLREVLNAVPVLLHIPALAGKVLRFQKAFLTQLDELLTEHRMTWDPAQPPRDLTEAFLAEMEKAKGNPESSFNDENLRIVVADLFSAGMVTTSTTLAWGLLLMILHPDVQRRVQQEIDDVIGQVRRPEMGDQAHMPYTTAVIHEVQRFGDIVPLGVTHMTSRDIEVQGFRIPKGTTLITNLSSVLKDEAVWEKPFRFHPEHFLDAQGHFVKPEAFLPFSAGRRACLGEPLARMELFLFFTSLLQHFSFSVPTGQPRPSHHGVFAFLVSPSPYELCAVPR

SMILES	inhibition at 10 min, 10 µM (CYP2D6) [%]	IC50 (hERG channel) [µM]	IC20 (hERG channel) [µM]	hERG IC20 / TLR7 IC50 (hERG channel)	hERG IC20 / TLR9 IC50 (hERG channel)	IC50 (hTLR9) [µM]	hERG IC20 / TLR8 IC50 (hERG channel)
C[C@@H]1CN(c2ccc(C#N)c3nccnc23)C[C@H](CN2CCN(c3cc4c(cn3)CCN[C@@H]4C)CC2)O1 (single isomer, unassigned) [Example 87]	-2.5	–	–	–	–	–	–
C[C@@H]1CN(c2ccc(C#N)c3nccnc23)C[C@H](CN2CCN(c3cc4c(cn3)CCN[C@H]4C)CC2)O1 (single isomer, unassigned) [Example 88]	9.5	–	–	–	–	–	–
C[C@@H]1CN(c2ccc(C#N)c3ncccc23)C[C@H](CN2CCN(c3ccncc3)CC2)O1 [ER-888286, reference compound]	52.5	1.3	0.348	0.3	0.2	> 2	–
C[C@@H]1CN(c2ccc(C#N)c3ncccc23)C[C@H](CN2CCN(c3ccc4c(c3)CNCC4)CC2)O1 [Example 9, 5-[(2R,6S)-2-methyl-6-[[4-(1,2,3,4-tetrahydroisoquinolin-7-yl)piperazin-1-yl]methyl]morpholin-4-yl]quinoline-8-carbonitrile]	-2.5	> 20	6.16	148.0	80.4	–	410.5
C[C@@H]1CN(c2ccc(C#N)c3ncccc23)C[C@H](CN2CCN(c3cnc4c(c3)CNC4)CC2)O1 [Example 10, 5-[(2S,6R)-2-[[4-(6,7-dihydro-5H-pyrrolo[3,4-b]pyridin-3-yl)piperazin-1-yl]methyl]-6-methyl-morpholin-4-yl] quinoline-8-carbonitrile]	2.5	> 20	> 10	>289.9	>187.3	–	>442.5
